Test results from patent US20150231190A1, “COMPOSITIONS COMPRISING SIRAITIA GROSVENORI EXTRACTS AND METHODS FOR THE TREATMENT OF INFECTION” (Cascade Estates Limited, priority 2007, published 2015).

What was measured:
[1] = test system: H9 cells; assay: Cytotoxicity control by microscopic inspection of cells; conditions: for Cytotoxicity (Appearance of cells): no virus
From the text: (§1) H9 cells were used as host cells for the virus. H9 is a human T cell clone selected for high yield permissive growth of HIV-1, cloned from Hut 78, a human T cell lymphoma cell line with an inducer/helper phenotype derived from the peripheral blood of a patient with Sezary Syndrome.
Cytotoxicity was judged from the microscopic inspection of the cells.

[2] = test system: HIV-1 strain IIIB; assay: HIV-1 p24 antigen capture ELISA antiviral assay in H9 cells; format: cell-based; conditions: for % Positive Control (HIV-1 p24): 7 days
From the text: as §1
The virus used was HIV-1, Strain IIIB, Catalog No 10-124-000, Lot No. 6M0008-DP.
A titration was run on the virus under the assay conditions without the experimental compounds to determine the viral inoculum for the antiviral assay, that is the lowest multiplicity of infection (MOI) that will infect all positive control cultures. The inoculum was approximately seven times the TCID50/mL of the stock virus.
1 mL cultures were plated with approximately 2.5×10^5 cells per culture. Four replicates were run for each assay condition.
The virus was absorbed onto the host cells in the presence of a reduced volume of culture medium for 2 hours. The inoculum was then washed off the cells with phosphate buffered saline. […] The growth medium used was RPMI 1640 with 10% fetal bovine serum and 50 μg/mL gentamicin.
The assay was run for 7 days and re-fed media with appropriate compound concentrations at 4 days.
The amount of virus proliferation was measured using an HIV-1 p24 antigen capture ELISA. At 7 days, supernatants were harvested and frozen. Supernatants were thawed and diluted as necessary, and the HIV-1 p24 ELISA assay was run. Excess supernatant was refrozen and held for 3 months. The HIV-1 p24 […] of replicate cultures were averaged and presented as a percentage of the positive control.
An inhibition index of zero indicated no efficacy. The closer to 1 the inhibition index was, the greater the efficacy.

[3] = Water solubility (stated); format: physicochemical
[4] = test system: Bovine Viral Diarrhoea Virus (BVDV), strain NADL; assay: Antiviral fluorometric cytoproliferation assay against BVDV in BT turbinate cells; format: cell-based; conditions: fluvastatin alone 0.3125 μg/mL
Protocol: The Luo Han Guo extract was tested independently at a wide range of concentrations. The extract was tested in two assays, one at 100, 50, 25, 12.5 and 6.25 μg/mL and the other at 3600, 1200, 400, 133.3 and 44.4 μg/mL.
Bos taurus (BT) turbinate cells were used as host cells for the virus. After the cells were plated and allowed to grow overnight, The extract was added and then the virus was inoculated into the cultures. The cultures were allowed to grow for 7 days and then a fluorometric cytoproliferation assay was run. The data from all replicate cultures was averaged and compared to the growth of the negative controls (no virus or extract). The extract was present during absorption and in the media for the duration of the assays. A titration was run on the virus under the assay conditions but without the extract to determine the optimal viral inoculum for the antiviral assay. A dilution of 10^−4 of the stock virus was determined to be the correct inoculum for the antiviral assays. The growth medium used was Dulbecco's Minimum Eagle's Medium and 10% filtered horse serum. […]
The inhibition index was calculated as one minus the ratio of the average fluorescent units of the positive control to the average fluorescent units of infected cultures with a particular concentration of extract (1−(average positive control+average with extract)). […]

| Structure (SMILES) | Cytotoxicity (Appearance of cells) ([1]; Mogroside V 2 μg/mL) | Cytotoxicity (Appearance of cells) ([1]; Mogroside V 6 μg/mL) | Cytotoxicity (Appearance of cells) ([1]; Mogroside V 12 μg/mL) | Cytotoxicity (Appearance of cells) ([1]; Mogroside V 36 μg/mL) | Cytotoxicity (Appearance of cells) ([1]; Mogroside V 100 μg/mL) | Cytotoxicity, as determined by microscopic inspection ([1]; entire range of concentrations used (2 to 100 μg/mL)) | Concentration most effective against HIV-1 [2] | Efficacy ([2]; Mogroside V 2 μg/mL) | % Positive Control (HIV-1 p24) ([2]; Mogroside V 2 μg/mL) | Effectiveness at suppressing HIV-1 replication ([2]; Mogroside V 6 μg/mL) | Efficacy ([2]; Mogroside V 6 μg/mL) | % Positive Control (HIV-1 p24) ([2]; Mogroside V 6 μg/mL) | Efficacy ([2]; Mogroside V 12 μg/mL) | % Positive Control (HIV-1 p24) ([2]; Mogroside V 12 μg/mL) | Efficacy ([2]; Mogroside V 36 μg/mL) | % Positive Control (HIV-1 p24) ([2]; Mogroside V 36 μg/mL) | Efficacy ([2]; Mogroside V 100 μg/mL) | % Positive Control (HIV-1 p24) ([2]; Mogroside V 100 μg/mL) | Water solubility [3] | Antiviral activity against BVDV [4] |
| --- | --- | --- | --- | --- | --- | --- | --- | --- | --- | --- | --- | --- | --- | --- | --- | --- | --- | --- | --- | --- |
| C[C@H](CC[C@@H](O[C@@H]1O[C@H](CO[C@@H]2O[C@H](CO)[C@@H](O)[C@H](O)[C@H]2O)[C@@H](O)[C@H](O)[C@H]1O[C@@H]1O[C@H](CO)[C@@H](O)[C@H](O)[C@H]1O)C(C)(C)O)[C@H]1CC[C@@]2(C)[C@@H]3CC=C4[C@@H](CC[C@H](O[C@@H]5O[C@H](CO[C@@H]6O[C@H](CO)[C@@H](O)[C@H](O)[C@H]6O)[C@@H](O)[C@H](O)[C@H]5O)C4(C)C)[C@]3(C)[C@H](O)C[C@]12C [Mogroside V, mogroside V] | Normal | Normal | Normal | Normal | Normal | no cytotoxicity | 6 µg/mL | Partial (partially efficacious if cultures had an inhibition index between 0.20 and 0.89) | 48% | ~80% | Partial (partially efficacious if cultures had an inhibition index between 0.20 and 0.89) | 21% | Partial (partially efficacious if cultures had an inhibition index between 0.20 and 0.89) | 34% | Partial (partially efficacious if cultures had an inhibition index between 0.20 and 0.89) | 59% | None (as having no efficacy if cultures had an inhibition index of less than 0.20) | 88% |  |  |
| CC(C)n1c(/C=C/[C@H](O)C[C@H](O)CC(=O)O)c(-c2ccc(F)cc2)c2ccccc21 (racemic) [fluvastatin, 7-[3-(4-fluorophenyl)-1-(1-methylethyl)-1H-indol-2-yl]-3,5-dihydroxy-hept-6-enoic acid] |  |  |  |  |  |  |  |  |  |  |  |  |  |  |  |  |  |  | water soluble | no antiviral activity |
